Consider 18 compounds from paper PMC10328330 (PLOS ONE, 2023).

SMILES strings stand for the structures. Like-named read-outs stand apart in the source and are kept apart here.

Series [1] has as its system T. gondii. Also on record: method as in PMID 23019377. The note with it: T. gondii-infected mice, after 16 days of treatment, cited from earlier work.
Series [2] concerns T. gondii tachyzoites (RH strain, clone 2F1). Put plainly: microbe, parasite or virus in culture. Type of series: cell-based, Toxoplasma gondii. The note with it: for EC50: 72 h, read-out: EC50 ± SD against T. gondii tachyzoites.
Series [3] is described as follows: Cytotoxicity in mammalian cells (MTT assay). The following applies: human, HFF cells.
Series [4] deals with HFF cells. Kind of series: Cytotoxicity in mammalian cells (MTT assay). The note with it: read-out: CC50 ± SD against HFF cells; HFF, 72 h, MTT; highest tested concentration 50 μM; ± SD of two independent experiments.
Series [5] has as its system T. gondii (ME49 strain). Put plainly: Efficacy in mice chronically infected with T. gondii (brain cysts, qPCR parasite burden). Type of series: in vivo, Toxoplasma gondii. The note with it: C57BL/6 mice chronically infected with ME49. Here is the method:
Chronic infection in Male C57/BL/6 mice (4 weeks-old) was obtained by intraperitoneal injection of brain tissue cysts (ME49 strain) as previously described. The cysts were obtained by directly macerating the brain tissue of previously chronically infected mice in 5 mL of saline solution. The resulting mixture was then subjected to a counting procedure using a Neubauer chamber under a microscope to determine the concentration of the cysts. To prepare the cysts for injection, they were further diluted in saline solution to achieve the desired concentration of 10 cysts per animal. Subsequently, the mice in the experiment were infected with these freshly obtained brain cysts via intraperitoneal injection. The animals were considered chronically infected 40 days post-infection, according to the protocol described by. […] Additionally, the presence of brain cysts, known to be responsible for the observed symptoms, further confirmed the chronic infection status.
Forty days after infection, chronically infected mice were randomly assigned into experimental groups (n = 4 per group). […] On day 51 post-infection, all animals were euthanized, and their brains were collected for analyses. The brains were used for microscopic counting of cysts, measurement of cysts area, RNA extraction, and quantification. For microscopic counting, 25 μL of macerated organ was utilized, while 200 μL was used for RNA extraction. Cysts area was measured using ImageJ software, available at https://imagej.nih.gov/ij/.
We performed a serial dilution of cultured tachyzoites of T. gondii (RH strain), ranging from 5×10^6 to 7.8×10^4 forms per mL. DNA samples were extracted from each point of the serial dilution (in duplicate samples), and real-time PCR was performed. The resulting data were used to plot the cycle threshold value (CT) against varying amounts of parasites, ultimately generating a standard curve. […]
Each DNA and cDNA samples were analysed by quantitative real-time PCR using the set of primers Rep529, which amplified a T. gondii repetitive DNA fragment. […]
A general note: Quantitative PCR measures a nucleic acid by following its amplification.

Series [6] deals with mice. Also on record: method as in PMID 23791825. The note with it: cited from earlier work.
[7] abbreviates: Toxoplasma gondii, RH-2F1 tachyzoites in HFF, β-galactosidase readout, ± SD of two independent experiments.
Setting [8] is: CC50 HFF cells/EC50 T. gondii ratio.
Setting [9] is: RH-2F1 tachyzoites in HFF, β-galactosidase readout, ± SD of two independent experiments.

As for `O=C1C(O)=C([C@H]2CC[C@H](c3ccc(Cl)cc3)CC2)C(=O)c2ccccc21` [Atovaquone], in series [1] (5 mg/kg), the “reduction of the number of brain cysts” value is recorded as 44%.
By EC50 is commonly meant the concentration giving half of the maximal effect. The CC50 is the concentration at which the toxic effect on the cells reaches its halfway point. For the compound `O=C(Nc1ccc([N+](=O)[O-])cc1Cl)c1cc(Cl)ccc1O` [Compound 1, Niclosamide], the “Selectivity Index (SI)” value in series [2] worked out at 83. Moreover, in series [2] (setting [7]), the EC50 was found to be 0.43 ± 0.15 µM. In series [3], this compound returned a CC50 at 72 h of 35.5 ± 9.57 µM.
Consider `CCC(C)n1ncn(-c2ccc(N3CCN(c4ccc(OCC5COC(Cn6cncn6)(c6ccc(Cl)cc6Cl)O5)cc4)CC3)cc2)c1=O` (centres unmarked) [Compound 5, Itraconazole], for which, in series [2] (setting [7]), the EC50 was 0.1 ± 0.01 µM. For the same compound, the CC50 at 72 h in series [3] is over 50 µM.
For the compound `Nc1nc2nc[nH]c2c(=S)[nH]1` [Compound 6, Tioguanine], in series [2], the “Selectivity Index (SI)” value is over 109. Further, the EC50 in series [2] (Toxoplasma gondii) was determined as 0.46 ± 0.19 µM. In addition, the CC50 at 72 h in series [3] is over 50 µM.
`CNC(=O)c1cc(Oc2ccc(NC(=O)Nc3ccc(Cl)c(C(F)(F)F)c3)cc2)ccn1` [Compound 9, Sorafenib]: the EC50 in series [2] (setting [7]) amounted to 0.65 ± 0.25 µM. The CC50 at 72 h in series [3] turned out to be 12.4 ± 3.17 µM.
The matching figures for `C=CCNc1nc(NCC=C)nc(N2CCN(C(c3ccc(F)cc3)c3ccc(F)cc3)CC2)n1` [Compound 11, Almitrine]: 0.32 ± 0.14 µM and over 50 µM.
Turning to `CCN1CCN(Cc2ccc(Nc3ncc(F)c(-c4cc(F)c5nc(C)n(C(C)C)c5c4)n3)nc2)CC1` [Compound 12, Abemaciclib], in series [2] (setting [7]), the EC50 worked out at 0.05 ± 0.02 µM. The compound also registered a CC50 at 72 h in series [3] of over 50 µM.
The matching figures for `O=C1NCN(c2ccccc2)C12CCN(CCCC(c1ccc(F)cc1)c1ccc(F)cc1)CC2` [Compound 14, Fluspirilene]: 0.76 ± 0.07 µM and over 50 µM.
Take `COc1ccc2cc1Oc1ccc(cc1)C[C@H]1c3cc(c(OC)cc3CCN1C)Oc1c(O)c(OC)cc3c1[C@H](C2)N(C)CC3` [Compound 20, Hanfangchin B]: the “Selectivity Index (SI)” value in series [2] (setting [8]) came to 54. The EC50 in series [2] (setting [9]) was 0.84 ± 0.19 µM. Also, in series [4], the CC50 came out at 45 ± 5.85 µM.
`O=C(O)c1ccc2c(c1)nc(Nc1cccc(Cl)c1)c1ccncc12` [Compound 22, Silmitasertib]: the EC50 in series [2] (setting [7]) amounted to 0.87 ± 0.15 µM. In series [3], this compound had a CC50 at 72 h of 38.4 ± 16.4 µM.
As to `COc1cccc2c1CCCC2CCCN1CCN(C2CCCCC2)CC1` (centres unmarked) [Compound 23, PB 28], in series [2] (setting [8]), the “Selectivity Index (SI)” value was over 102. The EC50 in series [2] (setting [9]) came to 0.49 ± 0.21 µM. Besides, the CC50 in series [4] is over 50 µM.
On to `C[C@@H](C1CCCCC1)n1c(-c2cc3c(cc2Br)OCO3)nc2cc(C(=O)Nc3ccc(C#N)cc3)ccc21` [Compound 26, AZ3451], for which, in series [2] (setting [8]), the “Selectivity Index (SI)” value is recorded as over 55. For the same compound, the EC50 in series [2] (setting [9]) was found to be 0.91 ± 0.09 µM. Moreover, the CC50 in series [4] was over 50 µM.
The matching figures for `CNCc1[cH-]ccc1CNc1ccnc2cc(Cl)ccc12.[Fe+2].c1cc[cH-]c1` [Compound 27, Desmethyl ferroquine]: 71, 0.54 ± 0.02 µM and 38.2 ± 15.6 µM.
Regarding `OC(CNCC(O)C1CCc2cc(F)ccc2O1)C1CCc2cc(F)ccc2O1` (centres unmarked) [Compound 28, Nebivolol], the “Selectivity Index (SI)” value in series [2] worked out at 48. The EC50 in series [2] (setting [7]) stood at 0.78 ± 0.28 µM. Also, it took 37.1 ± 2.88 µM to reach half-maximal cytotoxicity in series [3] (CC50 at 72 h).
The matching figures for `O=c1[nH]c2ccccc2n1C1CCN(CCCC(c2ccc(F)cc2)c2ccc(F)cc2)CC1` [Compound 29, Pimozide]: over 61, 0.82 ± 0.22 µM and over 50 µM.
For `CCc1nc(N)nc(N)c1-c1ccc(Cl)cc1` [Compound 30, Pyrimetamine], the EC50 in series [2] (setting [7]) was determined as 0.37 ± 0.08 µM. In series [3], this compound had a CC50 at 72 h of over 50 µM.
Regarding `COc1cc2[nH]c(C)c(-c3ccc(Oc4ccc(OC(F)(F)F)cc4)cc3)c(=O)c2cc1F` [ELQ-316], the “reduction of the number of brain cysts” value in series [1] (25 mg/kg) is 88%.
The term LD50 denotes the dose at which mortality reaches 50%. For the compound `C=CCNc1nc(NCC=C)nc(N2CCN(C(c3ccc(F)cc3)c3ccc(F)cc3)CC2)n1` [almitrine bismesylate], the “parasite burden in the brains (real-time PCR)” value in series [5] (25 mg/kg/day oral for 10 days, RNA of living parasites by qPCR, vs vehicle control group) was “statistically significant (p < 0.001) reduction”. For the same compound, the cysts area entry in series [5] (12.5 and 25 mg/kg/day oral for 10 days from day 40 post-infection, microscopy of brain macerates, ImageJ, vs vehicle) is recorded as “significant reduction (p < 0.05)”. Besides, the “number of brain cysts” value in series [5] (12.5 and 25 mg/kg/day oral for 10 days from day 40 post-infection, microscopy of brain macerates, vs vehicle) is recorded as “significant reduction (p < 0.05)”. In series [6], the LD50 was over 200 mg/kg.
